A value given as a limit tells only on which side of the number the result lay.

Experiment [1] addresses Voltage-gated inwardly rectifying potassium channel KCNH2 (Homo sapiens, UniProt Q12809). The class given is functional.
In experiment [2] the target is T1, Alpha-2A adrenergic receptor (Homo sapiens, UniProt P08913).
T1 sequence (P08913 whole entry): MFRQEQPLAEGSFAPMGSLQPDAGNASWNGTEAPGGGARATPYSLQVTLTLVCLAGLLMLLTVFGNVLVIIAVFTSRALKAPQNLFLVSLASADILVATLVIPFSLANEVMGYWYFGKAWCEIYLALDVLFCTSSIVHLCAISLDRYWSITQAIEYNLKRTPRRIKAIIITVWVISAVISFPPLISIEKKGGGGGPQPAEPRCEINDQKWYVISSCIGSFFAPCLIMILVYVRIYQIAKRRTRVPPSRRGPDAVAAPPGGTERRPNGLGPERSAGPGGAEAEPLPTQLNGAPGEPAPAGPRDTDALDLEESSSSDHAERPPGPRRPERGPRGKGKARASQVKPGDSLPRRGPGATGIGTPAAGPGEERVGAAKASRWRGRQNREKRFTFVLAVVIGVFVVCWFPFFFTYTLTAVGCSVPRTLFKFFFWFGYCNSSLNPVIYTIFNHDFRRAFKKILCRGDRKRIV
The class given is functional, cell-based.

For experiment [3], the target named is T2, Alpha-2C adrenergic receptor (Homo sapiens, UniProt P18825).
T2 sequence (P18825 whole entry): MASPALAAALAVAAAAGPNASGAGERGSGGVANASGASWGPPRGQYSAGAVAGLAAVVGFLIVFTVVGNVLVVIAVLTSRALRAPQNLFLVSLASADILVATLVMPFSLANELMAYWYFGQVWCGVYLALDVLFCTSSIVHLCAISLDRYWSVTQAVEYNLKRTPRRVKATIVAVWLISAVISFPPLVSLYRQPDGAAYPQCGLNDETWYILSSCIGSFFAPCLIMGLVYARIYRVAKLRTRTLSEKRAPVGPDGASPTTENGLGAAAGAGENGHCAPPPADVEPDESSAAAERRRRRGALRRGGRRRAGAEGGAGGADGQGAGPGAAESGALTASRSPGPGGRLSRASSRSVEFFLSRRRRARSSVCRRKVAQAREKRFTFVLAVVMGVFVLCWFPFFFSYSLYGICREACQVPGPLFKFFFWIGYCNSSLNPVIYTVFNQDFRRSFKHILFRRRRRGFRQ
The class given is functional.

Experiment [4] concerns the target Growth hormone secretagogue receptor type 1 (Homo sapiens, UniProt Q92847).
Experiment [5] addresses Glutamate receptor ionotropic, NMDA 1 (Rattus norvegicus, UniProt P35439).
Experiment [6] has as its target T3, 5-hydroxytryptamine receptor 1A (Homo sapiens, UniProt P08908).
T3 sequence (P08908 whole entry): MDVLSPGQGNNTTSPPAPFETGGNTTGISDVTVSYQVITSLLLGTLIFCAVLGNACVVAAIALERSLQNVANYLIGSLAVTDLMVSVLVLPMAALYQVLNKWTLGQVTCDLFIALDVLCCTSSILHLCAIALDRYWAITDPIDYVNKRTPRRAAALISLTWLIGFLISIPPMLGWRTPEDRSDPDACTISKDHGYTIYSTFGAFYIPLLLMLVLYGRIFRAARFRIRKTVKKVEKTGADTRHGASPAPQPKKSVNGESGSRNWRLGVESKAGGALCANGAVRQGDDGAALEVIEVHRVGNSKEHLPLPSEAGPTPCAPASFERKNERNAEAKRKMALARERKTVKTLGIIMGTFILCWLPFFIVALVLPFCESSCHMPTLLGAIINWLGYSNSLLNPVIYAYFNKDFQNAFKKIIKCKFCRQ
The class given is functional, cell-based.

Experiment [7] has as its target Delta-type opioid receptor (Homo sapiens, UniProt P41143).
Experiment [8] deals with T4, Prostaglandin G/H synthase 1 (Rattus norvegicus, UniProt Q63921).
T4 sequence (Q63921 whole entry): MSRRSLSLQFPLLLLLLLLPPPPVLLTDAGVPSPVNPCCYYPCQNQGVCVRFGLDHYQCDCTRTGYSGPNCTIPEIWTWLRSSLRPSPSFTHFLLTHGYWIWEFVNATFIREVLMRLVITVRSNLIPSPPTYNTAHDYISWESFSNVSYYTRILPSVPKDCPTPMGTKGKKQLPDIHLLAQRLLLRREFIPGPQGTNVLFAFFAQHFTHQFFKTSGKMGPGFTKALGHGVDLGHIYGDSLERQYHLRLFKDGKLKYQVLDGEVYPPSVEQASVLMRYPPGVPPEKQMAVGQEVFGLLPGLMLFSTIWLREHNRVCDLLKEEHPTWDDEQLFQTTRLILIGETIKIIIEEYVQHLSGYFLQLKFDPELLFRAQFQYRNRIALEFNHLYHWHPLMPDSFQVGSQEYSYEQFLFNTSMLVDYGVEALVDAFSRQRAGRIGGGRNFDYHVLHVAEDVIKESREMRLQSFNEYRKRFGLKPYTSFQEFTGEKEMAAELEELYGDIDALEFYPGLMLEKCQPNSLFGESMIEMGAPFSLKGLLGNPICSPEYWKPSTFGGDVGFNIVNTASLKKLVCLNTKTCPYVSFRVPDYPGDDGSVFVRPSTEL
The class given is functional.

In experiment [9] the target is Sodium-dependent dopamine transporter (Homo sapiens, UniProt Q01959).
Sequence of Sodium-dependent dopamine transporter (Q01959 whole entry): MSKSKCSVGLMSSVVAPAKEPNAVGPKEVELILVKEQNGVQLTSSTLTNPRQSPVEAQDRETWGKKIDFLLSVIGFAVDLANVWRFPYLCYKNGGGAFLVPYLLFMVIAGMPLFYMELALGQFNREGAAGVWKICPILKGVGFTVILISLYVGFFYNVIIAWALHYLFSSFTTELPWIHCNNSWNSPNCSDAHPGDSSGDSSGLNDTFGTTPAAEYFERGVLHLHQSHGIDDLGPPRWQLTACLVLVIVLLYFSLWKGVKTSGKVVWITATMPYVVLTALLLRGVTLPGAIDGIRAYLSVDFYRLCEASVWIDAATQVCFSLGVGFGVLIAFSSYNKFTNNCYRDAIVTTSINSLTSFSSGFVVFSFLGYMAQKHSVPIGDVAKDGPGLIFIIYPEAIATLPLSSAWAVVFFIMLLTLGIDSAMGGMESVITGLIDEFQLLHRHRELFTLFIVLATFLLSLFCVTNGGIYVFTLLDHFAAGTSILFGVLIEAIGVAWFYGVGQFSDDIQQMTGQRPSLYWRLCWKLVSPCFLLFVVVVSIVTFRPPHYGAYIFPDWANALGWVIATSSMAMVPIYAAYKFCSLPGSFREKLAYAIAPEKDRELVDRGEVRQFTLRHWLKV
In experiment [10] the target is D(3) dopamine receptor (Homo sapiens, UniProt P35462).
Sequence of D(3) dopamine receptor (P35462 whole entry): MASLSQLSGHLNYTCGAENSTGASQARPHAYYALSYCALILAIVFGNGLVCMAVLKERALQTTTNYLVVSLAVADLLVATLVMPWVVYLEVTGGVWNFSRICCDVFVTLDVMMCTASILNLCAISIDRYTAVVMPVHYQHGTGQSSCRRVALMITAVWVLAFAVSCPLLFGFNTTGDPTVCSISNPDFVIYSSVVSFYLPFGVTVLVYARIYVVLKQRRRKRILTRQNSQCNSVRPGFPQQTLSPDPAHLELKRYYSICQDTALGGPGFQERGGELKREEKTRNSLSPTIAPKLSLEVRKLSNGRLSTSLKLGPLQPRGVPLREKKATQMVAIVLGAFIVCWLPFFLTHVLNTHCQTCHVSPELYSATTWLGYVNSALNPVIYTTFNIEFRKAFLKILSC
For experiment [11], the target named is T5, Thromboxane A2 receptor (Homo sapiens, UniProt P21731).
T5 sequence (P21731 whole entry): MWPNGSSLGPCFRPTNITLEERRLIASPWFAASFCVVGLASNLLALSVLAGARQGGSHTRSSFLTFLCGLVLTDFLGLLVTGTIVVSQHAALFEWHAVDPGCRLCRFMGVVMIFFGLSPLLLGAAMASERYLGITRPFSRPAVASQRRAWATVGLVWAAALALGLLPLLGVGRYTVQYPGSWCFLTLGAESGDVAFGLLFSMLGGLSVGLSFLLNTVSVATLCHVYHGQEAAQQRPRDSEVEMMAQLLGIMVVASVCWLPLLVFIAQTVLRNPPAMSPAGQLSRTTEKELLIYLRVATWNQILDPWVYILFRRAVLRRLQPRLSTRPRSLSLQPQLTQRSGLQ
Note: assay procedure not described here.

Sequence of Delta-type opioid receptor (P41143 whole entry): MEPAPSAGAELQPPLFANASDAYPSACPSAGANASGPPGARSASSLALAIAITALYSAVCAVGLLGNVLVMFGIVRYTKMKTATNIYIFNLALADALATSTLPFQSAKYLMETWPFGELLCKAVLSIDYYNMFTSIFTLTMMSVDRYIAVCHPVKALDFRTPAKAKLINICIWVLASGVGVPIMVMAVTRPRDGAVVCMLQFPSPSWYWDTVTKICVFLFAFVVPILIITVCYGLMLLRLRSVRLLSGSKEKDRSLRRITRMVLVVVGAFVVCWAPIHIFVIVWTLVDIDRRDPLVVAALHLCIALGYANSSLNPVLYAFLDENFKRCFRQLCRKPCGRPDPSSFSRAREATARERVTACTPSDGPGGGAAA
Sequence of Voltage-gated inwardly rectifying potassium channel KCNH2 (Q12809 whole entry): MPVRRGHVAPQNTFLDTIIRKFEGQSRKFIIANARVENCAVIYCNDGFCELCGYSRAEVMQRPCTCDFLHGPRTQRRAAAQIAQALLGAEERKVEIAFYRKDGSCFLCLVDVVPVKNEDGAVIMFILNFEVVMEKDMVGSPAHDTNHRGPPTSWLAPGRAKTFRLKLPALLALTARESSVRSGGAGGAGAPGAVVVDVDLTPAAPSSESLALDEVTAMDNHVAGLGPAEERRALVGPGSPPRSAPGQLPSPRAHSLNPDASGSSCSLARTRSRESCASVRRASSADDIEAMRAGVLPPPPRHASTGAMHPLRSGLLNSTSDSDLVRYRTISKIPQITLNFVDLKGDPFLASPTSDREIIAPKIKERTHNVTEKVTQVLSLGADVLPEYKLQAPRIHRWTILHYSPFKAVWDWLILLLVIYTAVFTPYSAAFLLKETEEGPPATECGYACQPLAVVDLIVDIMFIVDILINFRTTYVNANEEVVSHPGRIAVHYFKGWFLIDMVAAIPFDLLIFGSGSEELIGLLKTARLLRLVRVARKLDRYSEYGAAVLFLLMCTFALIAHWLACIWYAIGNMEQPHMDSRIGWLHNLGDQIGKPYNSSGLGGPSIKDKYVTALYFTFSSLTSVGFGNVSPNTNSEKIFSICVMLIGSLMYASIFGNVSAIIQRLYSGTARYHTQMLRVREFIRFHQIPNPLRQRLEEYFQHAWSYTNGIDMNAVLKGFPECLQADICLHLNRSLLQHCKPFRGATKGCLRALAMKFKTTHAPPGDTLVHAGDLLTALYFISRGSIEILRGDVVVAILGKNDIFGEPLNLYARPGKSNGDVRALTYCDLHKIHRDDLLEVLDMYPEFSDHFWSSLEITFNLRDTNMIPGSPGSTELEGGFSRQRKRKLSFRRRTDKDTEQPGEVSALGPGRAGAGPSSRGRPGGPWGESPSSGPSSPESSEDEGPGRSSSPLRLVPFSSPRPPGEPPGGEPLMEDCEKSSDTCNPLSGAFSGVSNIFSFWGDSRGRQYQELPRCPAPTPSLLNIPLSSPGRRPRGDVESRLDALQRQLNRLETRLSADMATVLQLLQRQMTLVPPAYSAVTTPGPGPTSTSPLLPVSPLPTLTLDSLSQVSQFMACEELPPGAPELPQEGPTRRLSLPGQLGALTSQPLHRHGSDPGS
Sequence of Growth hormone secretagogue receptor type 1 (Q92847 whole entry): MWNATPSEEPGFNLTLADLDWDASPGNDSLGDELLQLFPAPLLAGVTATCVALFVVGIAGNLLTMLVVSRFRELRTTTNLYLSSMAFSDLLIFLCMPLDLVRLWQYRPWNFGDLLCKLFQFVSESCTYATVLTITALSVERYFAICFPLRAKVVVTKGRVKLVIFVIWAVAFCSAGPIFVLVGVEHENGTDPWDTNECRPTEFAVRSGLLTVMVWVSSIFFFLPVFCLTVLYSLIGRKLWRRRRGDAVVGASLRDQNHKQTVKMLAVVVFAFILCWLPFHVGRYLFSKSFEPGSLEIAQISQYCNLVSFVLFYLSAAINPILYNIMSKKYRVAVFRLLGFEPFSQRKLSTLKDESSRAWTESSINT

As to `CC(C)N(CCNC(=O)CN1CCCC1=O)C(C)C`, in [1], the AC50 is > 30 µM.
The same measure, in the same setting: to `Cc1cc(N)c2ccccc2[n+]1CCCCCCCCCC[n+]1c(C)cc(N)c2ccccc21` belongs 0.133 µM.
In the case of `CCOC(=O)[C@H](CCc1ccccc1)N[C@@H](C)C(=O)N(CC(=O)O)C1Cc2ccccc2C1`, the AC50 in experiment [1] was > 30 µM.
As to `C=CCSCC1Nc2cc(Cl)c(S(N)(=O)=O)cc2S(=O)(=O)N1` (stereo not given) [ALTHIAZIDE], in experiment [1], the AC50 was > 30 µM.
With `C/N=C(\NC)NCc1ccccc1` [BETHANIDINE], the AC50 in experiment [2], in experiment [3], in experiment [4], in experiment [5], in [6] and in [1] was > 30 µM each time. Besides, the concentration at half-maximal activity (AC50) in experiment [7], in [8], in experiment [9] and in experiment [10] was > 30 µM each time.
Consider `CCC(C)C1(CC)C(=O)NC(=O)NC1=O` (stereo not given) [BUTABARBITAL], for which the AC50 in experiment [2], in experiment [3], in experiment [4], in experiment [6], in experiment [1] and in [8] was > 30 µM throughout. Also, the concentration at half-maximal activity (AC50) in experiment [9] is > 30 µM.
`CC(=O)O[C@]1(C(C)=O)CC[C@H]2[C@@H]3C=C(Cl)C4=CC(=O)CC[C@]4(C)[C@H]3CC[C@@]21C` [CHLORMADINONE ACETATE]: the AC50 in experiment [1] is > 30 µM.
`NC(=O)OCC(O)COc1ccc(Cl)cc1` (stereo not given) [CHLORPHENESIN CARBAMATE]: the AC50 in experiment [1] is > 30 µM.
`O=C(O)c1cn(C2CC2)c2cc(N3CCNCC3)c(F)cc2c1=O` [CIPROFLOXACIN]: the AC50 in experiment [4] and in experiment [11] was > 30 µM each time.
For `Cc1ccccc1N1CCN(CCc2nnc3n2CCCC3)CC1` [DAPIPRAZOLE], the AC50 in [1] is > 30 µM.
Turning to `C[C@]12CC[C@@H]3c4ccc(O)cc4C[C@@H](CCCCCCCCC[S+]([O-])CCCC(F)(F)C(F)(F)F)[C@H]3[C@@H]1CC[C@@H]2O` (stereo not given in full) [FULVESTRANT], the AC50 in experiment [2], in [3], in [4], in experiment [5], in experiment [6] and in experiment [1] was > 30 µM throughout. Also, the AC50 in [7], in experiment [8], in [9] and in experiment [10] was > 30 µM in each case.
For `CCC(=O)O[C@]1(C(=O)CCl)[C@@H](C)C[C@H]2[C@@H]3C[C@H](F)C4=CC(=O)C=C[C@]4(C)[C@@]3(F)[C@@H](O)C[C@@]21C` [HALOBETASOL PROPIONATE], in [1], the AC50 was > 30 µM.
Still for that read-out and setting: to `CC(N)Cc1ccc(O)cc1` (stereo not given) [HYDROXYAMPHETAMINE] belongs > 30 µM; to `Cc1cc(NC(=O)C2=C(O)c3ccccc3S(=O)(=O)N2C)no1` [ISOXICAM], > 30 µM.
As for `COc1cc2c(cc1OC)CC(=O)N(CCCN(C)C[C@H]1Cc3cc(OC)c(OC)cc31)CC2` [IVABRADINE], the AC50 in [1] amounted to 30 µM.
Consider `Oc1ccc2c(c1)CC[C@H](c1ccccc1)[C@@H]2c1ccc(OCCN2CCCC2)cc1` [LASOFOXIFENE], for which the AC50 in [2] was 10 µM; in experiment [4] it was 5.2 µM; in experiment [5] it was > 30 µM; in [6], > 30 µM; in experiment [1], 0.73 µM; in experiment [7] it was 7.2 µM. Also, the results for the AC50 in experiment [8], in experiment [9] and in experiment [10] were 5 µM, 0.117 µM and 2.2 µM, respectively.
`CC(C)(C)NC[C@H](O)COc1cccc2c1CCCC2=O` [LEVOBUNOLOL]: the concentration at half-maximal activity (AC50) in [1] was > 30 µM.
The same measure, in the same setting: in the case of `Cc1c(N(C)CS(=O)(=O)O)c(=O)n(-c2ccccc2)n1C` [METAMIZOLE] it was > 30 µM; in that of `CN1C(=O)/C(=N\NC(N)=S)c2ccccc21` [METHISAZONE], > 30 µM.
Turning to `COC(=O)c1ccc(O)cc1` [METHYLPARABEN], in experiment [1], the AC50 was > 30 µM.
`O=[N+]([O-])c1ccc(O)c2ncccc12` [NITROXOLINE]: the AC50 in [2] is > 30 µM; in experiment [3], 7.1 µM; in [5], > 30 µM; in experiment [6] it was > 30 µM; in [1] it was 28 µM; in [7], 5.7 µM. This molecule also had an AC50 in [10] of 5.8 µM.
In the case of `CCCc1nc(C(C)(C)O)c(C(=O)O)n1Cc1ccc(-c2ccccc2-c2nnn[nH]2)cc1` [OLMESARTAN], the AC50 in experiment [1] is > 30 µM.
Turning to `NCC(CC(=O)O)c1ccccc1` (stereo not given) [PHENIBUT], the AC50 in experiment [1] is > 30 µM.
As for `CC[C@@H]([C@H](C)O)n1ncn(-c2ccc(N3CCN(c4ccc(OC[C@@H]5CO[C@@](Cn6cncn6)(c6ccc(F)cc6F)C5)cc4)CC3)cc2)c1=O` [POSACONAZOLE], the AC50 in experiment [3], in experiment [1], in experiment [7], in [8], in experiment [9] and in experiment [10] was > 30 µM throughout.
As to `Cc1ncc(COP(=O)(O)O)c(C=O)c1O` [PYRIDOXAL PHOSPHATE ANHYDROUS], in [1], the AC50 was > 30 µM.
In the case of `COc1ccc(CN(CCN(C)C)c2ccccn2)cc1` [PYRILAMINE], the AC50 in experiment [1] was found to be 9.59 µM.
For `c1ccc2c(c1)CCc1ccccc1N2C1CN2CCC1CC2` (stereo not given) [QUINUPRAMINE], the AC50 in experiment [1] came out at 12 µM.
Turning to `CNCc1ccc(-c2[nH]c3cc(F)cc4c3c2CCNC4=O)cc1` [RUCAPARIB], the half-maximal activity concentration (AC50) in experiment [3] is > 10 µM; in [4] it was > 30 µM; in [1], 14.1 µM; in experiment [8] it was > 30 µM; in [11] it was > 30 µM; in experiment [9], > 30 µM.
For the molecule `C[C@H](Cc1cc2c(c(C(N)=O)c1)N(CCCO)CC2)NCCOc1ccccc1OCC(F)(F)F` [SILODOSIN], the values for the AC50 in experiment [2] and in experiment [1] were > 30 µM and 12.8 µM, respectively.
As for `CCOC(=O)N1CSC[C@H]1C(=O)O` [TELMESTEINE], the concentration at half-maximal activity (AC50) in [1] is > 30 µM.
